In patent US8273775B2, “Non-steroidal brassinosteroid mimetic” (priority 2006, dated 2012):

Tested on: gene expression in Col-0 seedling shoots
Assay: Microarray analysis (ATH1 Affymetrix) after BL or abrasin treatment
Type: in vivo, Arabidopsis
Conditions: 120 min
Method: FIG. 14: Clustering of gene expression profiles by QT-clust analysis. Clusters illustrating the major patterns of the data sets. Points: BIK-30: 30 μM abrasin 30 min; BL-30: 1 μM brassinolide 30 min; DMSO-30: control DMSO 30 min; BIK-120: 30 μM abrasin 120 min; BL-120: 1 μM brassinolide 120 min; DMSO-120: control DMSO 120 min.
Col-0 seeds were germinated vertically on ½ MS medium for 7 days under 16 h light/8 h dark cycles. The seedlings were overlaid with liquid ½ MS medium containing 1 μM brassinolide (BL, Fuji Chemical Industries, Ltd., Toyama, Japan), 30 μM abrasin (BIK, ChemBridge Corporation) and DMSO and treated for 30 and 120 min. The shoot parts were collected for RNA isolation. All sampling points were performed in three independent experiments. RNA was extracted using RNeasy kit (Qiagene). […] total RNA per array was used to hybridise the ATH1 Affymetrix Arabidopsis arrays according to standard procedure. The overrepresentation analyses were performed using BiNGO software (Maere et al., 2005).
We performed a microarray analysis using the Arabidopsis whole genome chip (Affymetix) to determine whether abrasin activated the expression of BR-inducible genes at transcriptional level. Wild-type Col-0 seedlings were exposed to 1 μM BL, 30 μM ABRASIN and DMSO (mock-treatment) for two time points (30 min and 120 min) and the shoot parts were collected for RNA isolation. The analysis of the variance of the normalized gene expression data took in account the variability parameters affecting the expression level: type of hormone treatment, duration of treatment and the interaction between these two.

O=C(O)CCC(=O)Nc1ccc(Br)cn1 [abrasin, 4-[(5-bromo-2-pyridinyl)amino]-4-oxobutanoic acid]
Fold-change AT4G16780 homeobox-leucine zipper protein 4 (HAT4)/HD-ZIP protein: 0.42
Fold-change AT4G17250 expressed protein: 3.32
Fold-change AT4G17460 homeobox-leucine zipper protein 1 (HAT1)/HD-ZIP protein 1: 0.11
Fold-change AT4G21510 F-box family protein: 2.54
Fold-change AT4G23030 MATE efflux protein-related: 5.25
Fold-change AT4G23070 rhomboid family protein: 3.80
Fold-change AT4G23810 WRKY family transcription factor: 1.00
Fold-change AT4G24160 hydrolase, alpha/beta fold family protein: 2.29
Fold-change AT4G25620 hydroxyproline-rich glycoprotein family protein: 0.49
Fold-change AT4G25780 pathogenesis-related protein: 0.18
Fold-change AT4G27970 C4-dicarboxylate transporter/malic acid transport family protein: 3.04
Fold-change AT4G28240 wound-responsive protein-related: 0.33
Fold-change AT4G28490 leucine-rich repeat transmembrane protein kinase, putative: 2.30
Fold-change AT4G28703 expressed protein: 6.14
Fold-change AT4G28780 GDSL-motif lipase/hydrolase family protein: 1.26
Fold-change AT4G29070 expressed protein: 0.50
Fold-change AT4G30080 transcriptional factor B3 family protein: 0.41
Fold-change AT4G31020 expressed protein: 5.81
Fold-change AT4G32280 auxin-responsive AUX/IAA family protein (IAA29): 0.13
Fold-change AT4G33050 calmodulin-binding family protein: 1.58
Fold-change AT4G33700 CBS domain-containing protein: 0.38
Fold-change AT4G34610 homeodomain-containing protein: 0.41
Fold-change AT4G36110 auxin-responsive protein: 4.62
Fold-change AT4G36780 brassinosteroid signalling positive regulator-related: 0.03
Fold-change AT4G37240 expressed protein: 1.45
Fold-change AT4G37290 expressed protein: 2.45
Fold-change AT4G37590 phototropic-responsive NPH3 family protein: 0.43
Fold-change AT4G38840 auxin-responsive protein (SAUR14): 1.95
Fold-change AT4G38850 auxin-responsive protein (SAUR-AC1): 2.22
Fold-change AT4G38860 auxin-responsive protein (SAUR16): 2.27
Fold-change AT4G39400 brassinosteroid insensitive 1 (BRI1): 0.46
Fold-change AT5G02020 expressed protein: 2.29
Fold-change AT5G05690 cytochrome P450 90A1 (CYP90A1) (CYP90) (CPD): 0.29
Fold-change AT5G07690 myb family transcription factor (MYB29): 0.27
Fold-change AT5G08130 basic helix-loop-helix (bHLH) family protein (BIM2): 0.37
Fold-change AT5G12050 expressed protein: 0.27
Fold-change AT5G13180 no apical meristem (NAM) family protein: 0.39
Fold-change AT5G13740 sugar transporter family protein: 0.23
Fold-change AT5G14730 expressed protein: 0.53
Fold-change AT5G16200 50S ribosomal protein-related: 0.10
Fold-change AT5G16980 NADP-dependent oxidoreductase: 3.07
Fold-change AT5G18750 DNAJ heat shock N-terminal domain-containing protein: 1.26
Fold-change AT5G19200 short-chain dehydrogenase/reductase (SDR) family protein: 1.11
Fold-change AT5G19340 expressed protein: 0.23
Fold-change AT5G24030 C4-dicarboxylate transporter/malic acid transport family protein: 1.66
Fold-change AT5G24660 expressed protein: 3.61
Fold-change AT5G25240 expressed protein: 2.16
Fold-change AT5G25930 leucine-rich repeat family protein: 1.38
Fold-change AT5G27350 sugar-porter family protein 1 (SFP1): 1.56
Fold-change AT5G27670 histone H2A: 0.41
Fold-change AT5G38310 expressed protein: 1.88
Fold-change AT5G38990; AT5G39000 [AT5G38990, protein kinase family protein: 2.08
Fold-change AT5G39050 transferase family protein: 1.83
Fold-change AT5G39610 no apical meristem (NAM) family protein: 0.35
Fold-change AT5G39970 expressed protein: 2.66
Fold-change AT5G42830 transferase family protein: 2.74
Fold-change AT5G47370 homeobox-leucine zipper protein 2 (HAT2): 0.43
Fold-change AT5G48070 putative xyloglucan endotransglycosylase/hydrolase: 3.63
Fold-change AT5G48540 33 kDa secretory protein-related: 2.03
Fold-change AT5G51550 phosphate-responsive 1 family protein: 0.41
Fold-change AT5G54490 calcium-binding EF-hand protein, putative: 3.06
Fold-change AT5G54860 integral membrane transporter family protein: 2.01
Fold-change AT5G55970 zinc finger (C3HC4-type RING finger) family protein: 2.56
Fold-change AT5G56980 expressed protein: 0.22
Fold-change AT5G57190 phosphatidylserine decarboxylase: 1.58
Fold-change AT5G57780 expressed protein: 0.13
Fold-change AT5G59080 expressed protein: 0.40
Fold-change AT5G60200 Dof-type zinc finger domain-containing protein: 3.85
Fold-change AT5G60270 lectin protein kinase family protein: 2.56
Fold-change AT5G60630 expressed protein: 2.20
Fold-change AT5G61600 encodes a member of the ERF (ethylene response factor): 2.04
Fold-change AT5G62360 invertase/pectin methylesterase inhibitor family protein: 0.25
Fold-change AT5G65310 homeobox-leucine zipper protein 5 (HB-5)/HD-ZIP transcription factor 5: 0.20
Fold-change AT5G66420 expressed protein: 0.42
Fold-change AT5G66590 allergen V5/Tpx-1-related family protein: 0.31
Fold-change AT5G67450 zinc finger (C2H2 type) protein 1 (AZF1): 1.82
Fold-change of gene AT4G16140 (proline-rich family protein) (245479_at, Cluster 6): 1.51
Fold-change of gene AT4G15260 (UDP-glucoronosyl/UDP-glucosyl transferase family protein) (245543_at, Cluster 7): 1.52
Fold-change of gene AT5G09440 (phosphate-responsive protein, putative) (245885_at, Cluster 5): 0.13
Fold-change of gene AT1G77380 (amino acid carrier) (246389_at, Cluster 10): 0.99
Fold-change of gene AT5G15740 (expressed protein) (246516_at, Cluster 5): 0.49
Fold-change of gene AT5G65300 (expressed protein) (247177_at, Cluster 5): 0.25
Fold-change of gene AT5G64890 (expressed protein) (247205_at, Cluster 10): 2.18
Fold-change of gene AT5G63790 (no apical meristem (NAM) family protein) (247351_at, Cluster 9): 0.69
Fold-change of gene AT5G62630 (expressed protein) (247444_at, Cluster 7): 2.28
Fold-change of gene AT5G60850 (Dof-type zinc finger domain-containing protein) (247601_at, Cluster 10): 0.64
Fold-change of gene AT5G59510 (expressed protein) (247704_at, Cluster 9): 0.60
Fold-change of gene AT5G58660 (oxidoreductase. 2OG-Fe(II) oxygenase family protein) (247774_at, Cluster 5): 2.15
Fold-change of gene AT5G54120 (expressed protein) (248190_at, Cluster 5): 0.38
Fold-change of gene AT5G54130 (calcium-binding EF hand family protein) (248191_at, Cluster 5): 0.31
Fold-change of gene AT5G52900 (expressed protein) (248282_at, Cluster 6): 0.96
Fold-change of gene AT5G49100 (expressed protein) (248646_at, Cluster 9): 0.62
Fold-change of gene AT5G18060 (auxin-responsive protein) (250012_x_at, Cluster 6): 0.46
Fold-change of gene AT5G09800 (U-box domain-containing protein) (250493_at, Cluster 9): 0.80
Fold-change of gene AT5G08565 (expressed protein) (250537_at, Cluster 8): 0.41
Fold-change of gene AT5G03670 (expressed protein) (250907_at, Cluster 5): 0.32
Fold-change of gene AT5G01740 (expressed protein) (251072_at, Cluster 5): 0.34
Fold-change of gene AT3G63380 (calcium-transporting ATPase) (251176_at, Cluster 10): 0.11
Fold-change of gene AT3G60690 (auxin-responsive family protein) (251342_at, Cluster 9): 0.29
Fold-change of gene AT3G45610 (Dof-type zinc finger domain) (252586_at, Cluster 10): 2.56
Fold-change of gene AT3G44610 (protein kinase family protein) (252646_at, Cluster 5): 0.38
Fold-change of gene AT4G34760 (auxin-responsive family protein) (253255_at, Cluster 6): 1.61
Fold-change of gene AT4G34138 (UDP-glucoronosyl/UDP-glucosyl transferase family protein) (253281_at, Cluster 7): 3.16
Fold-change of gene AT4G31910 (transferase family protein) (253483_at, Cluster 5): 1.60
Fold-change of gene AT4G30410 (expressed protein) (253617_at, Cluster 5): 0.45
Fold-change of gene AT4G30450 (glycine-rich protein) (253629_at, Cluster 5): 0.39
Fold-change of gene AT4G26200 (1-aminocyclopropane-1-carboxylate synthase) (253999_at, Cluster 9): 0.24
Fold-change of gene AT4G03400 (auxin-responsive GH3 family protein) (255403_at, Cluster 6): 0.77
Fold-change of gene AT4G02700 (sulfate transporter) (255443_at, Cluster 7): 2.16
Fold-change of gene AT1G22190 (AP2 domain-containing transcription factor) (255926_at, Cluster 8): 0.50
Fold-change of gene AT1G66140 (zinc finger (C2H2 type) family protein) (256528_at, Cluster 6): 0.61
Fold-change of gene AT3G25655 (expressed protein) (256762_at, Cluster 8): 0.15
Fold-change of gene AT3G21420 (oxidoreductase, 2OG-Fe(II) oxygenase family protein) (256818_at, Cluster 7): 2.39
Fold-change of gene AT3G18280 (protease inhibitor/seed storage/lipid transfer protein) (257066_at, Cluster 5): 0.39
Fold-change of gene AT1G29440 (auxin-responsive family protein) (257506_at, Cluster 6): 0.47
Fold-change of gene AT3G29200 (chorismate mutase, chloroplast (CM1)) (257746_at, Cluster 5): 0.49
Fold-change of gene AT1G13260 (DNA-binding protein RAV1 (RAV1)) (259364_at, Cluster 8): 0.46
Fold-change of gene AT1G29500 (auxin-responsive protein) (259773_at, Cluster 6): 0.61
Fold-change of gene AT1G29510 (auxin-responsive protein) (259783_at, Cluster 6): 0.50
Fold-change of gene AT1G29450 (auxin-responsive protein) (259784_at, Cluster 6): 0.61
Fold-change of gene AT1G29460 (auxin-responsive protein) (259787_at, Cluster 6): 0.44
Fold-change of gene AT1G76690; AT1G76680 ([AT1G76690, 12-oxophytodienoate reductase (OPR2)) (259875_s_at, Cluster 7): 6.14
Fold-change of gene AT1G76620 (expressed protein) (259985_at, Cluster 8): 0.28
Fold-change of gene AT1G63720 (expressed protein) (260243_at, Cluster 10): 0.16
Fold-change of gene AT1G48100 (glycoside hydrolase family 28 protein) (260727_at, Cluster 8): 0.38
Fold-change of gene AT1G12200 (flavin-containing monooxygenase family protein) (261023_at, Cluster 7): 2.20
Fold-change of gene AT1G12845 (expressed protein) (261203_at, Cluster 6): 2.71
Fold-change of gene AT1G15550 (gibberellin 3-beta-dioxygenase) (261768_at, Cluster 6): 1.17
Fold-change of gene AT1G80840 (WRKY family transcription factor) (261892_at, Cluster 9): 0.20
Fold-change of gene AT1G80080 (leucine-rich repeat family protein) (262040_at, Cluster 6): 2.07
Fold-change of gene AT1G80130 (expressed protein) (262050_at, Cluster 8): 0.18
Fold-change of gene AT1G21680 (expressed protein) (262505_at, Cluster 10): 2.01
Fold-change of gene AT1G34245 (expressed protein) (262543_at, Cluster 6): 5.18
Fold-change of gene AT1G78460 (SOUL heme-binding family protein) (263126_at, Cluster 7): 2.50
Fold-change of gene AT1G78820; AT1G78830 ([AT1G78820, curculin-like (mannose-binding) lectin family protein) (264279_s_at, Cluster 7): 1.84
Fold-change of gene AT2G42380 (bZIP transcription factor family protein) (265877_at, Cluster 6): 0.80
Fold-change of gene AT2G45080 (cyclin family protein) (266124_at, Cluster 8): 0.10
